Usually EC50 stands for the concentration needed to bring the measured effect to its halfway point.

Drawing on ChEMBL document CHEMBL4257221, “Peptides comprising non-natural amino acids and methods of making and using the same” (2016), this text covers Activity, Survival and EC50 for 3 compounds.

In experiment [1] the test system is Mus musculus. Put plainly: Stimulation of Treg cells function in C57BL/6 mouse splenocytes assessed as suppression of anti-CD3-stimulated CD4+/CD25- naive T cells proliferation at 300 ug, ip pretreated daily for 5 days followed by splenocytes isolation and co-culture with CD4+/CD25- naive T cells. Type of experiment: functional, organism-based.
Experiment [2] relates to Mus musculus. The experiment is described as follows: Anti-parkinson's activity in MPTP-induced C57BL/6 mouse model of Parkinson's disease receiving adaptive transfer of splenocytes from 15 ug/day/5 days, ip compound treated donor mouse assessed as TH-positive neurons survival rate in substantia nigra measured on day 7 post MPTP intoxication by FJ-C staining based assay (reference value: 24.5%). Type of experiment: functional.

Experiment [3] has as its system Mus musculus. Put plainly: Stimulation of Treg cells function in C57BL/6 mouse splenocytes assessed as suppression of anti-CD3-stimulated effector T cell proliferation pretreated ip daily for 5 days followed by splenocytes isolation and co-culture with untreated splenocytes at 1:1 ratio. Type of experiment: functional, organism-based.
Experiment [4] addresses T1, Vasoactive intestinal polypeptide receptor 1 (Homo sapiens, UniProt P32241).
T1 sequence (P32241 whole entry): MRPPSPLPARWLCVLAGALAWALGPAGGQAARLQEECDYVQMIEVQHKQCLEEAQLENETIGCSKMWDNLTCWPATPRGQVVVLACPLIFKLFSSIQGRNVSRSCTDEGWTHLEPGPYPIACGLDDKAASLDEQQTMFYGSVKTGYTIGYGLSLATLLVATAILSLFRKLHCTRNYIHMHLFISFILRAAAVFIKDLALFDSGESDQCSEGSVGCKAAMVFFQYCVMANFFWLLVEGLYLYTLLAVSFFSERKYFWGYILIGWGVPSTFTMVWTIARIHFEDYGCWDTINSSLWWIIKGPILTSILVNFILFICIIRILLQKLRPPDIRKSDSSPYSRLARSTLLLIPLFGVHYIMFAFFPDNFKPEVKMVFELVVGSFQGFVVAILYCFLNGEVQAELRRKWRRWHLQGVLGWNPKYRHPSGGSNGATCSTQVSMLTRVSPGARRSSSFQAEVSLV
The experiment is described as follows: Agonist activity at human VIPR1 expressed in CHOK1 cells assessed as intracellular cAMP accumulation after 60 mins by PathHunter assay. Type of experiment: functional, cell-based. In general terms: Cyclic AMP is a second messenger, typically raised through Gs and lowered through Gi signalling.

In experiment [5] the target is T2, Vasoactive intestinal polypeptide receptor 2 (Homo sapiens, UniProt P41587).
T2 sequence (P41587 whole entry): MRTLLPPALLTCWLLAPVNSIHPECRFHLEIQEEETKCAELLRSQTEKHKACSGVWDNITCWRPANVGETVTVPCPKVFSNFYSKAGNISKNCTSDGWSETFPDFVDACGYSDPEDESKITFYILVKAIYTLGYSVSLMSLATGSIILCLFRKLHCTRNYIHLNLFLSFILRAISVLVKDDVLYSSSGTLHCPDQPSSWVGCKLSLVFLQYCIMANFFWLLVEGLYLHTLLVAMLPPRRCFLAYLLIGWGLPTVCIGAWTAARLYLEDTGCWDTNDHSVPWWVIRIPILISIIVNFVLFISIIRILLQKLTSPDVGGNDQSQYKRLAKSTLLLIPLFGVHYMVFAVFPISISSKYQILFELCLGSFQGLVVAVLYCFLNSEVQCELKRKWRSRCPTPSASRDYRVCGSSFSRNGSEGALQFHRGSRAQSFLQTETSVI
The experiment is described as follows: Agonist activity at human VIPR2 expressed in CHOK1 cells assessed as intracellular cAMP accumulation after 60 mins by PathHunter assay. Type of experiment: functional, cell-based.

Calls of active or inactive are those of the source. The rule behind the calls is not given here. Numbered stars: 1 amine (or outer) side, 2 acyl side, 3 side chain; on linkers, the order of the positions; unused ones are H or OH. Square brackets hold non-standard residues; d marks the D form. Peptide text beside a SMILES is read from it. ξ: configuration not given here. X1 = O=C([C@H]1CCC[C@@H]1N[*:1])[*:2]; X2 = O=C([C@H]1CNC[C@@H]1N[*:1])[*:2]; ξβ3hQ = NC(=O)CCC(N)CC(=O)O; ξβ3hN = NC(=O)CC(N)CC(=O)O; ξβ3hL = CC(C)CC(N)CC(=O)O; ξβ3hK = NCCCCC(N)CC(=O)O; ξβ3hT = CC(O)C(N)CC(=O)O; ξβ3hV = CC(C)C(N)CC(=O)O; ξβ3hS = NC(CO)CC(=O)O; βAla = NCCC(=O)O

With `CC(=O)N[C@@H](Cc1cnc[nH]1)C(=O)N[C@H]1CCC[C@@H]1C(=O)N[C@@H](CC(=O)O)C(=O)N[C@@H](C)C(=O)N[C@H]1CCC[C@@H]1C(=O)N[C@@H](Cc1ccccc1)C(=O)N[C@H](C(=O)N[C@@H](CCC(=O)O)C(=O)N[C@@H](CC(N)=O)C(=O)N[C@@H](Cc1ccc(O)cc1)C(=O)N[C@H](C(=O)N[C@@H](CCCCN)C(=O)N[C@@H](CC(C)C)C(=O)N[C@@H](CCCNC(=N)N)C(=O)N[C@@H](CCCCN)C(=O)NC(CCC(N)=O)CC(=O)N[C@@H](CC(C)C)C(=O)N[C@@H](C)C(=O)N[C@@H](C)C(=O)N[C@H]1CNC[C@@H]1C(=O)N[C@@H](CCCCN)C(=O)N[C@@H](Cc1ccc(O)cc1)C(=O)N[C@H]1CCC[C@@H]1C(=O)N[C@@H](CC(N)=O)C(=O)N[C@@H](CC(=O)O)C(=O)N[C@@H](CC(C)C)C(=O)NC(CCCCN)CC(=O)N[C@@H](CCCCN)C(=O)NCC(=O)NCCC(=O)NC(CC(=O)O)C(C)O)[C@@H](C)O)[C@@H](C)O` (stereo partly drawn) (Ac-H[X1]DA[X1]FTENYTKLRK[ξβ3hQ]LAA[X2]KY[X1]NDL[ξβ3hK]KG[βAla][ξβ3hT]-OH), the outcome in the experiment with Mus musculus [1] was Active. Moreover, in the experiment on Mus musculus [2], the Survival was 79.7%. For the same compound, the Activity entry with Mus musculus [3] is “Dose-dependent effect”.

For `CC[C@H](C)[C@H](NC(=O)[C@H](C)NC(=O)[C@H](CC(N)=O)NC(=O)CC(CC(C)C)NC(=O)[C@H](Cc1ccc(O)cc1)NC(=O)[C@H](CCCCN)NC(=O)[C@H](CCCCN)NC(=O)CC(NC(=O)[C@H](C)NC(=O)[C@H](CC(C)C)NC(=O)[C@H](CCC(N)=O)NC(=O)CC(CCCCN)NC(=O)[C@H](CCCNC(=N)N)NC(=O)[C@H](CC(C)C)NC(=O)[C@H](CCCNC(=N)N)NC(=O)CC(NC(=O)[C@H](Cc1ccc(O)cc1)NC(=O)[C@H](CC(N)=O)NC(=O)[C@H](CC(=O)O)NC(=O)[C@@H](NC(=O)[C@H](Cc1ccccc1)NC(=O)CC(NC(=O)[C@H](C)NC(=O)[C@H](CC(=O)O)NC(=O)CC(CO)NC(=O)[C@@H](N)Cc1cnc[nH]1)C(C)C)[C@@H](C)O)C(C)O)C(C)C)C(=O)NC(CC(=O)N[C@@H](CC(N)=O)C(=O)O)CC(C)C` (stereo partly drawn) (H-H[ξβ3hS]DA[ξβ3hV]FTDNY[ξβ3hT]RLR[ξβ3hK]QLA[ξβ3hV]KKY[ξβ3hL]NAI[ξβ3hL]N-OH), the EC50 in experiment [4] came to 64.4 nM; in experiment [5], 716 nM.

Turning to `CC[C@H](C)[C@H](NC(=O)[C@H](C)NC(=O)[C@H](CC(N)=O)NC(=O)CC(CC(C)C)NC(=O)[C@H](Cc1ccc(O)cc1)NC(=O)[C@H](CCCCN)NC(=O)[C@H](CCCCN)NC(=O)CC(NC(=O)[C@H](C)NC(=O)[C@H](CC(C)C)NC(=O)[C@H](CCC(N)=O)NC(=O)CC(CCCCN)NC(=O)[C@H](CCCNC(=N)N)NC(=O)[C@H](CC(C)C)NC(=O)[C@H](CCCNC(=N)N)NC(=O)CC(NC(=O)[C@H](Cc1ccc(O)cc1)NC(=O)CC(CC(N)=O)NC(=O)[C@H](CC(=O)O)NC(=O)[C@@H](NC(=O)[C@H](Cc1ccccc1)NC(=O)CC(NC(=O)[C@H](C)NC(=O)[C@H](CC(=O)O)NC(=O)CC(CO)NC(=O)[C@@H](N)Cc1cnc[nH]1)C(C)C)[C@@H](C)O)C(C)O)C(C)C)C(=O)NC(CC(=O)N[C@@H](CC(N)=O)C(=O)O)CC(C)C` (stereo partly drawn) (H-H[ξβ3hS]DA[ξβ3hV]FTD[ξβ3hN]Y[ξβ3hT]RLR[ξβ3hK]QLA[ξβ3hV]KKY[ξβ3hL]NAI[ξβ3hL]N-OH), the figures for the EC50 in experiment [4] and in experiment [5] were 298000 nM and 503 nM, respectively.
